ChEMBL document CHEMBL3804781, “Antitrypanosomal activity of 5-nitro-2-aminothiazole-based compounds” (Eur J Med Chem, 2016)
Active and inactive are the calls of the source. No cut-off for these calls is given here.

Test system: not listed separately
Test: Selectivity index, ratio of IC50 for rat L6 cells to IC50 for amastigote stage of Trypanosoma cruzi Tulahuen C4 infected in rat L6 cells
Type: toxicity, cell-based
Details: read-out: Ratio IC50

Row | Structure (SMILES) | selectivity ratio
1 | COc1ccc(N2CCN(CC(=O)Nc3ncc([N+](=O)[O-])s3)CC2)cc1 | 14

Test system: Trypanosoma brucei
Test: Activity at recombinant His-tagged Trypanosoma brucei NTR assessed as oxidation of NADH/min/mg of protein after 5 mins by spectrophotometric analysis
Details: not given

Row | Structure (SMILES) | Activity
2 | O=C(CN1CCN(c2ccccn2)CC1)Nc1ncc([N+](=O)[O-])s1 | inactive
3 | O=C(CN1CCN(C(c2ccccc2)c2ccc(Cl)cc2)CC1)Nc1ncc([N+](=O)[O-])s1 (centres undefined) | inactive
4 | O=C(COc1ccc(-c2ccccc2)cc1)Nc1ncc([N+](=O)[O-])s1 | inactive

Second part, the compound after the results:

Row | Activity | Structure (SMILES)
5 | inactive | O=C(CN1CCN(c2ccc(Cl)c(Cl)c2)CC1)Nc1ncc([N+](=O)[O-])s1
6 | Active | O=C(CN1CCN(c2ccc(C(F)(F)F)cc2)CC1)Nc1ncc([N+](=O)[O-])s1
7 | inactive | O=C(Nc1ncc([N+](=O)[O-])s1)c1ccc(-c2ccccc2)cc1
8 | Active | O=C(Cn1ccnc1[N+](=O)[O-])NCc1ccccc1

Test system: Trypanosoma brucei brucei
Test: Antitrypanosomal activity against wild type bloodstream form of Trypanosoma brucei brucei assessed as inhibition of parasite growth after 3 days by resazurin assay
Type: functional, organism-based
Details: 72 h

Row | Structure (SMILES) | IC50 [µM]
9 | O=C(CN1CCN(c2ccccn2)CC1)Nc1ncc([N+](=O)[O-])s1 | 21.6
